This passage reports Ki results from ChEMBL document CHEMBL1146910, “Selectively guanidinylated derivatives of neamine. Syntheses and inhibition of anthrax lethal factor protease” (Bioorg Med Chem Lett, 2006).

Conditions in all cases: read-out: Ki app
One test has as its target T1, Lethal factor (Bacillus anthracis, UniProt P15917).
T1 sequence (P15917 whole entry): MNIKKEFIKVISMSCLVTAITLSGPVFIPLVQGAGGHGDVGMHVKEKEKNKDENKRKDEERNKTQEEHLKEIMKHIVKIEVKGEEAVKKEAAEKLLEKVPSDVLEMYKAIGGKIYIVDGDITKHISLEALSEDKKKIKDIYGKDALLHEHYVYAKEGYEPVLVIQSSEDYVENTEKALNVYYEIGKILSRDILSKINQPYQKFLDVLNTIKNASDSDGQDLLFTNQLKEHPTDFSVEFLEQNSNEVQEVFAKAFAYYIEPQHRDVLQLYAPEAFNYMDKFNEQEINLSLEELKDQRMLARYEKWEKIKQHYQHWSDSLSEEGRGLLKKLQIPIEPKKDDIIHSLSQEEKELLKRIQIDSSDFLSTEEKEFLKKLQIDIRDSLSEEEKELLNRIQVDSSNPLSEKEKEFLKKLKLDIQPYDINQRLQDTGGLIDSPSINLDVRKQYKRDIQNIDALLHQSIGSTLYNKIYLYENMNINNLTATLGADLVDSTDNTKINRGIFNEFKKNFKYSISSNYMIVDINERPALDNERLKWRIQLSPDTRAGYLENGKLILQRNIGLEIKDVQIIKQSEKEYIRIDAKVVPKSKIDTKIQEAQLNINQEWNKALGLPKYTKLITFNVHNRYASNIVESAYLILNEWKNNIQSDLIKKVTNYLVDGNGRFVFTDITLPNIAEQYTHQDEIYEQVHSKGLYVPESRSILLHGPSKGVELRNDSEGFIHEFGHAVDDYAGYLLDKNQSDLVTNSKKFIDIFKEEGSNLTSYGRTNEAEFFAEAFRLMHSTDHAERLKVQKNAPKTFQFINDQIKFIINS

The target in a further test is T2, Interstitial collagenase (Homo sapiens, UniProt P03956).
T2 sequence (P03956 whole entry): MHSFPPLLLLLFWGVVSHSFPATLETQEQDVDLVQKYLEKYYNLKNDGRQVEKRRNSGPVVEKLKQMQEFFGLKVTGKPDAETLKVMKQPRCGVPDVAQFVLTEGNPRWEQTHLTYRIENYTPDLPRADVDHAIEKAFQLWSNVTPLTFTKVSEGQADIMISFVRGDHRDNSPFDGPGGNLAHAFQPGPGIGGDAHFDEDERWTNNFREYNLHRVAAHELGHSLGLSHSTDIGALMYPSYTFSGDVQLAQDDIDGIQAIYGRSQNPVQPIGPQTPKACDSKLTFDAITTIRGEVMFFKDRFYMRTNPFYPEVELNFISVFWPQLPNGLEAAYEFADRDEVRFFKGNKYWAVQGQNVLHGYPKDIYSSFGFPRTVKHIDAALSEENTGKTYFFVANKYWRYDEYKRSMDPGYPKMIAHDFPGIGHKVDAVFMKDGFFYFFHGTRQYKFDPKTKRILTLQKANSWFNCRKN
The experiment in a line: Activity at MMP1.

The next test concerns the target Stromelysin-1 (Homo sapiens, UniProt P08254). The experiment in a line: Activity at MMP3.
Test [1] deals with Matrix metalloproteinase-9 (Homo sapiens, UniProt P14780). The test is described as follows: Activity at MMP9.
Matrix metalloproteinase-9, sequence (P14780 whole entry): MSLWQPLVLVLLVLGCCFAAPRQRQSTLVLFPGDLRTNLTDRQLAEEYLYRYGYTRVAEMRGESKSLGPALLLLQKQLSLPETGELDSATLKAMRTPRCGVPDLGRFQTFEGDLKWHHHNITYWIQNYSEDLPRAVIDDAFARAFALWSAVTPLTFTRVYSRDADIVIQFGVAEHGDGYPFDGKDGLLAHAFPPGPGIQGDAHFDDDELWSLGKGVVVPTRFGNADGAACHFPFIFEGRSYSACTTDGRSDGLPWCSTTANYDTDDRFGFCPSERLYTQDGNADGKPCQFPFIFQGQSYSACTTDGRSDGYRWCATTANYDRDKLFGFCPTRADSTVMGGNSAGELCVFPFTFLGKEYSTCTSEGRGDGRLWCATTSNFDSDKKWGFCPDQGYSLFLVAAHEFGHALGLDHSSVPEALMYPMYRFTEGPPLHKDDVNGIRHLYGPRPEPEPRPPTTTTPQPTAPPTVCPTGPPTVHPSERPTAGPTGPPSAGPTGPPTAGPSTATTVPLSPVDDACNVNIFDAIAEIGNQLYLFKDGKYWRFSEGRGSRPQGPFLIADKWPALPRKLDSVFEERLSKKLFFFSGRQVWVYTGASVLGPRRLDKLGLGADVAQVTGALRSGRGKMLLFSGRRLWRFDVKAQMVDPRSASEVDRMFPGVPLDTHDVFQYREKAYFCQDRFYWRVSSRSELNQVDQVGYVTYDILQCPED
Test [2] addresses Macrophage metalloelastase (Homo sapiens, UniProt P39900). The test is described as follows: Activity at MMP12.
The target in test [3] is Matrix metalloproteinase-14 (Homo sapiens, UniProt P50281). The experiment in a line: Activity at MMP14.

Each structure is given as a SMILES string.

Macrophage metalloelastase, sequence (P39900 whole entry): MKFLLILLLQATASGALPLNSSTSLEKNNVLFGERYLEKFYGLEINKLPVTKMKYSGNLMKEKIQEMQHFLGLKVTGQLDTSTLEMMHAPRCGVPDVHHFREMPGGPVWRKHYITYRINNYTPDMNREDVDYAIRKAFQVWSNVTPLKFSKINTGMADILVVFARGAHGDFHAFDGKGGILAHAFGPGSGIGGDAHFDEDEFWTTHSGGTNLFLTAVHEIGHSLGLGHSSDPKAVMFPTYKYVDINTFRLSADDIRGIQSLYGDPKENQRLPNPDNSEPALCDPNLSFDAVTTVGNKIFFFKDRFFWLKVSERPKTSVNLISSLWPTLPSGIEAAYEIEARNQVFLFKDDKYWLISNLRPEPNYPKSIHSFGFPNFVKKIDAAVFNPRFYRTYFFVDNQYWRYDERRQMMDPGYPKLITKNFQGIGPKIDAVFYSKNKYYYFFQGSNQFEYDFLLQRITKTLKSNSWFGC
Stromelysin-1, sequence (P08254 whole entry): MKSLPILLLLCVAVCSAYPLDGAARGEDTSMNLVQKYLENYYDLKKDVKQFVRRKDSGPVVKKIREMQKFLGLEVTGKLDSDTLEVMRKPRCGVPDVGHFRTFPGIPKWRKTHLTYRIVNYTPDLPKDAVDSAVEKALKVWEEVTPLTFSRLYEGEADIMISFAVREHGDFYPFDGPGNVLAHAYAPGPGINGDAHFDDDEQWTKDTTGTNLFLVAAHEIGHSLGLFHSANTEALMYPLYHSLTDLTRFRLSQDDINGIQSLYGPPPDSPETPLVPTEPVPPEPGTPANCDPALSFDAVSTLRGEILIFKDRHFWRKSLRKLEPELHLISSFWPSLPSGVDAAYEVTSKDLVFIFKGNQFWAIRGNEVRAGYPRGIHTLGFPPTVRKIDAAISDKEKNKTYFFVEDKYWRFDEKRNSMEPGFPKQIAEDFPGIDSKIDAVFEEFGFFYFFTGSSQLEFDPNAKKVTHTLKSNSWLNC

As for `NC[C@H]1O[C@H](O[C@H]2[C@H](O)[C@@H](O)[C@H](N=C(N)N)C[C@@H]2N=C(N)N)[C@H](N)[C@@H](O)[C@@H]1O`, the Ki at Lethal factor was 5.6 µM.
Still for that read-out and setting: to `NC(N)=NC[C@H]1O[C@H](O[C@H]2[C@H](O)[C@@H](O)[C@H](N)C[C@@H]2N=C(N)N)[C@H](N)[C@@H](O)[C@@H]1O` belongs 8.8 µM.
`N=C(N)NC[C@H]1O[C@H](O[C@H]2[C@H](O)[C@@H](O)[C@H](NC(=N)N)C[C@@H]2NC(=N)N)[C@H](NC(=N)N)[C@@H](O)[C@@H]1O`: the Ki was 0.7 µM on Lethal factor; more than 300 µM at Interstitial collagenase; more than 300 µM on Stromelysin-1; more than 300 µM in test [1]; more than 300 µM in test [2]; more than 300 µM in test [3].
`CO[C@@H]1[C@@H](OC)[C@H](N=C(N)N)C[C@H](N=C(N)N)[C@H]1O[C@H]1O[C@H](CN=C(N)N)[C@@H](OC)[C@H](OC)[C@H]1N=C(N)N`: the Ki was 1.5 µM on Lethal factor; more than 300 µM at Interstitial collagenase; more than 300 µM at Stromelysin-1; more than 300 µM in test [1]; more than 300 µM in test [2]; more than 300 µM in test [3].
As for `NC[C@H]1O[C@H](O[C@H]2[C@H](O)[C@@H](O)[C@H](N=C(N)N)C[C@@H]2N)[C@H](N)[C@@H](O)[C@@H]1O`, the Ki at Lethal factor is 5 µM.
Same read-out and setting: for `NC(N)=NC[C@H]1O[C@H](O[C@H]2[C@H](O)[C@@H](O)[C@H](N)C[C@@H]2N)[C@H](N=C(N)N)[C@@H](O)[C@@H]1O` the value was 7.7 µM.
`NC[C@H]1O[C@H](O[C@H]2[C@H](O)[C@@H](O)[C@H](N)C[C@@H]2N=C(N)N)[C@H](N=C(N)N)[C@@H](O)[C@@H]1O`: the Ki at Lethal factor is 0.7 µM; at Interstitial collagenase, more than 300 µM; on Stromelysin-1 it was more than 300 µM; in test [1], more than 300 µM; in test [2], more than 300 µM; in test [3], more than 300 µM.
With `NC(N)=NC[C@H]1O[C@H](O[C@H]2[C@H](O)[C@@H](O)[C@H](N=C(N)N)C[C@@H]2N)[C@H](N)[C@@H](O)[C@@H]1O`, on Lethal factor, the Ki came out at 10.2 µM.
Regarding `NC[C@H]1O[C@H](O[C@H]2[C@H](O)[C@@H](O)[C@H](N)C[C@@H]2N=C(N)N)[C@H](N)[C@@H](O)[C@@H]1O`, the Ki at Lethal factor is 5.2 µM.
On to `NC[C@H]1O[C@H](O[C@H]2[C@H](O)[C@@H](O)[C@H](N)C[C@@H]2N)[C@H](N=C(N)N)[C@@H](O)[C@@H]1O`, for which, at Lethal factor, the Ki amounted to 10.9 µM.
Still for that read-out and setting: for `NC[C@H]1O[C@H](O[C@H]2[C@H](O)[C@@H](O)[C@H](N=C(N)N)C[C@@H]2N)[C@H](N=C(N)N)[C@@H](O)[C@@H]1O` the value was 5.3 µM.
On the same count and under the same terms, for `NC(N)=NC[C@H]1O[C@H](O[C@H]2[C@H](O)[C@@H](O)[C@H](N=C(N)N)C[C@@H]2N)[C@H](N=C(N)N)[C@@H](O)[C@@H]1O` the value was 3.1 µM.
Take `NC[C@H]1O[C@H](O[C@H]2[C@H](O)[C@@H](O)[C@H](N=C(N)N)C[C@@H]2N=C(N)N)[C@H](N=C(N)N)[C@@H](O)[C@@H]1O`: the Ki on Lethal factor is 0.5 µM; at Interstitial collagenase, more than 300 µM; at Stromelysin-1 it was more than 300 µM; in test [1], more than 300 µM; in test [2], more than 300 µM; in test [3], more than 300 µM.
Consider `NC(N)=NC[C@H]1O[C@H](O[C@H]2[C@H](O)[C@@H](O)[C@H](N)C[C@@H]2N=C(N)N)[C@H](N=C(N)N)[C@@H](O)[C@@H]1O`, for which, at Lethal factor, the Ki worked out at 9.2 µM.
Same read-out and setting: for `NC(N)=NC[C@H]1O[C@H](O[C@H]2[C@H](O)[C@@H](O)[C@H](N)C[C@@H]2N)[C@H](N)[C@@H](O)[C@@H]1O` the value was 24.3 µM.
Still for that read-out and setting: for `NC(N)=NC[C@H]1O[C@H](O[C@H]2[C@H](O)[C@@H](O)[C@H](N=C(N)N)C[C@@H]2N=C(N)N)[C@H](N)[C@@H](O)[C@@H]1O` the value was 8.7 µM.
